Measured values reported in patent US6342526B1, “Method for enhancing or achieving training-induced bradycardia with Carnitine” (Lonza Ltd., priority 2000, dated 2002).

Experiments:
[1] = LC concentration in M. glutaeus med. muscle biopsies; format: in vivo, horse; settings: horses
Excerpt: LC was obtained as commercially available free L-carnitine (Carniking® from Lonza Ltd.). After a first standardised exercise test (SET) during the whole experiment period (5 weeks training, 15 weeks detraining) a group of 4 Trotters received 10 g of LC/d offered with concentrate in two feed portions daily, as essentially described in example 1, while a group of 4 Trotters served as non-supplemented controls. All horses were two years old and were descendants from 1 stallion. The treadmill training program consisted of 8 aerobic, static exercise sessions (15 min warmup, 60 min exercise at an intensity level which maintained a blood lactate concentration of 2.0 mmol/l (VLA 2.0)) and 8 anaerobic exercise sessions (15 min, warm up, followed by 15 steps of graded exercise intensities of 1 min duration each, starting at VLA 4.0). During the dynamic exercises running speed was incremented every minute by 0.3 m/s and ranged from about of 5 m/s to 14 m/s. […]
Muscle biopsies from M. glutaeus med. and venous blood samples were collected at the beginning (1st SET) and the end of training (2nd SET) and at the beginning and the end of the 1st (beginning of training) and 8th (end of training) static and dynamic exercise and after 5 and 10 weeks of detraining. […] Heart rates were continuously monitored during exercises with a polar horse tester.

[2] = system: horses; assay: Plasma glucose and blood lactate during standardised exercise test (SET); format: in vivo, horse; settings: 10 g LC/d
[3] = system: swine; assay: Training-induced bradycardia in swine; format: in vivo
[4] = system: horses; assay: Heart rate during treadmill exercise training with oral L-carnitine supplementation; format: in vivo, horse
[5] = system: rats; assay: Training-induced bradycardia in rats; format: in vivo, rat

SMILES: C[N+](C)(C)C[C@H](O)CC(=O)[O-] [L-carnitine]
- Elevation of LC concentration in M. glutaeus med. ([1]; 10 g LC/d oral, five weeks of supplementation): about 50%
- LC concentration in the muscle during detraining period ([1]; 10 g LC/d, whole detraining period): remained at this high level
- Exercise-induced increase of blood lactate ([2]; FIG. 1): lower
- Concentration of glucose in plasma during exercise, second SET versus first SET ([2]; end of 5 weeks training): lower concentrations of glucose in plasma during exercise
- Enhancement of training-induced bradycardia [3]: enhancement of training-induced bradycardia was equally achieved
- Heart rate at end of incremented, high intensity (anaerobic) exercise, post-training ([4]; N=4, 10 g LC/d, end of 15 steps of +0.3 m/s, after 5 weeks training, mean): 196 beats/min
- Heart rate at end of incremented, high intensity (anaerobic) exercise, pre-training ([4]; N=4, 10 g LC/d, end of 15 steps of +0.3 m/s, pre-training, mean): 209 beats/min
- Heart rate at start of incremented, high intensity (anaerobic) exercise, post-training ([4]; N=4, 10 g LC/d, start at VLA 4.0, after 5 weeks training, mean): 143 beats/min
- Heart rate at start of incremented, high intensity (anaerobic) exercise, pre-training ([4]; N=4, 10 g LC/d, start at VLA 4.0, pre-training, mean): 150 beats/min
- Decline of post-training heart rate at equivalent work loads versus start of training ([4]; SET, 10 g LC/d for 5 weeks training, FIG. 2): 7 beats/minute
- Change in heart rate at increasing exercise work loads, end versus start of training ([4]; SET, treadmill speeds 5 to 9 m/s, 10 g LC/d, 5 weeks): significant (p<0.001) reduction in heart rate
- Heart rate during moderate intensity (aerobic) exercise, post-training ([4]; Trotters N=4, 10 g LC/d oral, 60 min treadmill at VLA 2.0, after 5 weeks training, mean ± SD): 122 ± 6 beats/min
- Heart rate during moderate intensity (aerobic) exercise, pre-training ([4]; Trotters N=4, 10 g LC/d oral, 60 min treadmill at VLA 2.0, pre-training, mean ± SD): 130 ± 7 beats/min
- Enhancement of training-induced bradycardia [5]: enhancement of training-induced bradycardia was equally achieved
